# Article PMC11915372, “Identification of a Series Containing a Pentafluorophenyl Moiety That Targets Pks13 to Inhibit Growth of Mycobacterium tuberculosis” (ACS Infectious Diseases, 2025)
# Read-outs that look alike come from different tables or passages of the source.
# What was measured:
# M. tuberculosis (H37Rv) = assay: microbe, parasite or virus in culture; assay type: cell-based, Mycobacterium tuberculosis
# physchem [1] = assay type: physicochemical
# [2] = assay type: in vitro ADME, mouse
# [3] = assay type: in vitro ADME, mouse; remark: listed apart in the source
# physchem [4] = conditions: pH 7.4
# HepG2 cells = assay: HepG2 cytotoxicity; conditions: Homo sapiens, HepG2, read-out: HepG2 inhibitory concentration (IC50)
# Description: Assays to establish HepG2 cytotoxicity, in vitro microsomal/hepatocyte metabolic stability, aqueous kinetic solubility, and in vivo pharmacokinetic profiles were all performed as previously described.[15],[35]−[37]
# [5] = Mycobacterium tuberculosis, H37RV, read-out: H37Rv MIC A
# [6] = Mycobacterium tuberculosis, H37RV, read-out: H37Rv MIC B
# [7] = Mycobacterium tuberculosis, H37RV, read-out: Wk2_7H9/DPPC/ casitone/ Tyloxapol MIC
# [8] = Mycobacterium tuberculosis, H37RV, read-out: Wk2_ 7H9/DPPC/ cholesterol/BSA/ Tyloxapol MIC
# [9] = Mycobacterium tuberculosis, H37RV, read-out: Wk2_7H9/glucose/ BSA/Tyloxapol MIC
# [10] = Mycobacterium tuberculosis, H37RV, read-out: Wk2_7H9/glucose/ casitone/ Tyloxapol MIC
# [11] = pH 7.4, aqueous buffer, kinetic from dmso stock
SMILES,MIC (M. tuberculosis (H37Rv); [5]) [µM],MIC (M. tuberculosis (H37Rv); [6]) [µM],MIC (M. tuberculosis (H37Rv); [7]) [µM],MIC (M. tuberculosis (H37Rv); [8]) [µM],MIC (M. tuberculosis (H37Rv); [9]) [µM],MIC (M. tuberculosis (H37Rv); [10]) [µM],solubility kinetic (physchem [1]; [11]) [µM],solubility kinetic (physchem [1]; read-out: Kin. Sol) [µM],"Microsomal Cli ([2]; CD1, mouse) [mL/min/g]","Mouse micro Cl ([2]; mouse, microsomes)",Hepatocyte Cli ([3]; mouse) [mL/min/g],"Mouse Heps Cl ([3]; mouse, hepatocytes)",chromatographic logD (physchem [4]),IC50 (HepG2 cells) [µM],also measured
"Cc1nc(C(=O)N(C)C)c(NC(=O)c2c(F)c(F)c(F)c(F)c2F)o1 [Compound 40, CN(C)C(=O)c1nc(oc1NC(=O)c1c(c(c(c(c1F)F)F)F)F)C]",12.5,19,12.5,19,19,9.4,242,242,0.846,0.85 mL/min/g,7.3,7.3 mL/min/g,1.4,> 100,–
"CCOC(=O)c1nc(C(C)C)oc1NC(=O)c1c(F)c(F)c(F)c(F)c1F [Compound 31, CCOC(=O)c1nc(oc1NC(=O)c1c(c(c(c(c1F)F)F)F)F)C(C)C]",0.1,0.6,0.1,0.6,0.6,0.15,195,195,3.3,3.3 mL/min/g,13,13 mL/min/g,2.8,> 100,–
"COC(=O)c1nc(C)oc1NC(=O)c1c(F)c(F)c(F)c(F)c1F [Compound 23, COC(=O)c1nc(oc1NC(=O)c1c(c(c(c(c1F)F)F)F)F)C]",0.6,1.2,0.6,1.2,1.2,0.6,237,237,<0.5,<0.5 mLmin/g,8.1,8.1 mLmin/g,1.4,> 100,–
"CCOC(=O)c1nc(N(C)C)oc1NC(=O)c1c(F)c(F)c(F)c(F)c1F [Compound 32, CCOC(=O)c1nc(oc1NC(=O)c1c(c(c(c(c1F)F)F)F)F)N(C)C]",0.2,0.6,0.2,0.6,1.2,0.3,221,221,1.4,1.4 mL/min/g,22,22 mL/min/g,2.4,> 100,–
"CCOC(=O)c1nc(C)oc1NC(=O)c1cc(F)c(F)c(F)c1F [Compound 25, CCOC(=O)c1nc(oc1NC(=O)c1cc(c(c(c1F)F)F)F)C]",0.3,0.6,0.3,0.6,0.6,0.3,136,136,5.1,5.1 mLmin/g,17,17 mLmin/g,2.5,> 100,–
"COC(=O)c1nn(C)cc1NC(=O)c1c(F)c(F)c(F)c(F)c1F [Compound 19, COC(=O)c1nn(cc1NC(=O)c1c(c(c(c(c1F)F)F)F)F)C]",0.15,–,0.15,–,0.3,0.2,–,–,–,–,–,–,2.7,> 100,"solubility kinetic (physchem [1]; kinetic solubility in water, read-out: Kin. Sol): 55 µM; solubility kinetic (physchem [1]; pH 7.4, aqueous buffer, kinetic from dmso stock, pH7.4, read-out: Kinetic Solubility pH7.4): 55 µM; Mouse micro Cl ([2]; intrinsic clearance (Cli), CD1 mouse liver microsomes, Tables 1-4): 23 mLmin/g; Microsomal Cli ([2]; supplement data table): 23 mL/min/g; Mouse Heps Cl ([3]; intrinsic clearance (Cli), mouse hepatocytes, Tables 1-4): >50 mLmin/g; Hepatocyte Cli ([3]; supplement data table): >50 mL/min/g"
"CCOC(=O)c1nc(-c2ccccc2)oc1NC(=O)c1c(F)c(F)c(F)c(F)c1F [Compound 34, CCOC(=O)c1nc(oc1NC(=O)c1c(c(c(c(c1F)F)F)F)F)-c1ccccc1]",0.8,4.7,0.8,4.7,4.7,0.3,21,21,6.9,6.9 mL/min/g,10,10 mL/min/g,3,93,–
"Cc1nc(C(=O)OC(C)(C)C)c(NC(=O)c2c(F)c(F)c(F)c(F)c2F)o1 [Compound 36, Cc1nc(c(o1)NC(=O)c1c(c(c(c(c1F)F)F)F)F)C(=O)OC(C)(C)C]",0.1,0.4,0.1,0.4,0.3,0.1,127,127,1.1,1.1 mL/min/g,26,26 mL/min/g,2.8,> 100,–
"CCOC(=O)c1nc(C)oc1NS(=O)(=O)c1c(F)c(F)c(F)c(F)c1F [Compound 30, CCOC(=O)c1nc(oc1NS(=O)(=O)c1c(c(c(c(c1F)F)F)F)F)C]",> 50,> 50,> 50,> 50,> 50,> 50,171,171,0.9,0.94 mLmin/g,0.8,0.78 mLmin/g,1.4,> 100,–
"CCOC(=O)c1nc(CN(C)C)oc1NC(=O)c1c(F)c(F)c(F)c(F)c1F [Compound 35, CCOC(=O)c1nc(oc1NC(=O)c1c(c(c(c(c1F)F)F)F)F)CN(C)C]",2.3,4.7,2.3,4.7,4.7,1.6,225,225,<0.5,<0.5 mL/min/g,4.7,4.7 mL/min/g,1.3,> 100,–
"Cc1nnc(-c2nc(C)oc2NC(=O)c2c(F)c(F)c(F)c(F)c2F)o1 [Compound 42, Cc1nnc(o1)-c1nc(oc1NC(=O)c1c(c(c(c(c1F)F)F)F)F)C]",2.3,6.3,2.3,6.3,4.7,2.3,174,174,<0.5,<0.5 mL/min/g,2.5,2.5 mL/min/g,1.1,> 100,loss of MIC potency (M. tuberculosis (H37Rv); relative to comparator of the series (21 vs thiophenes; 42 vs 24)): 10 fold
"Cc1nc(C(=O)O)c(NC(=O)c2c(F)c(F)c(F)c(F)c2F)o1 [Compound 38, Cc1nc(c(o1)NC(=O)c1c(c(c(c(c1F)F)F)F)F)C(=O)O]",> 50,> 50,5.4,> 50,43,7.7,250,250,<0.5,<0.5 mL/min/g,1.3,1.3 mL/min/g,0.78,> 100,–
"CC(=O)c1nc(C)oc1NC(=O)c1c(F)c(F)c(F)c(F)c1F [Compound 39, CC(=O)c1nc(oc1NC(=O)c1c(c(c(c(c1F)F)F)F)F)C]",1.2,3.1,1.2,3.1,3.1,1.2,241,241,<0.5,<0.5 mL/min/g,8.6,8.6 mL/min/g,1.2,> 100,–
"Cc1nc(-c2ncco2)c(NC(=O)c2c(F)c(F)c(F)c(F)c2F)o1 [Compound 41, Cc1nc(c(o1)NC(=O)c1c(c(c(c(c1F)F)F)F)F)-c1ncco1]",0.4,1.2,0.4,1.2,1.2,0.4,234,234,0.5,0.51 mL/min/g,12,12 mL/min/g,1.7,> 100,–
"CCOC(=O)c1nc(C)oc1NC(=O)c1c(F)c(F)c(F)c(F)c1F [Compound 24, CCOC(=O)c1nc(oc1NC(=O)c1c(c(c(c(c1F)F)F)F)F)C]",0.27,0.6,0.271,0.6,0.434,0.168,204,204,<0.5,–,12,–,1.8,> 100,MIC (M. tuberculosis (H37Rv); read-out: H37Rv MIC A): 0.3 µM
